Test results from US8709718B1, “Method of treating lung cancer” (Max-Planck-Gesellschaft zur Forderung der Wissenschaften …, priority 2011, dated 2014).

What was measured:
[1] = test system: phospho-ERK, phospho-AKT in FGFR1-amplified tumors; test: Immunohistochemical staining of explanted tumors; assay type: in vivo, mice; conditions: end of treatment
Excerpt: Mice bearing FGFR1-amplified tumors were sacrificed at the end of treatment. Tumors were exgrafted and embedded in paraffin. […] Antibodies recognizing pAKT, pERK, AKT and ERK were obtained from Cell signaling.

[2] = test system: lung cancer cells carrying amplified FGFR1; test: Apoptosis by Annexin V/PI flow cytometry; assay type: cell-based; conditions: 1.0 μM, 72 hours, versus DMSO; specifically in FGFR1-amplified cells; p=0.008
Procedure: Finally the cells were analyzed on a FACS Canto FlowCytometer (BD Biosciences).

[3] = test system: FGFR1-amplified cell lines; test: Soft-agar colony formation assay; assay type: cell-based; conditions: FGFR1-amplified cells
Procedure: Cells were suspended in growth media containing 10% FCS and 0.6% agar and plated in triplicate on 50 μl solidified growth medium (10% FCS; 1.0% agar). Growth medium containing indicated compound concentrations was added on top. Colonies were analyzed using the Scanalyzer imaging system (Lemnatec, Germany).

[4] = test system: PDGFRA- and FGFR1-amplified cell line H1703; conditions: 96 h of compound treatment, increasing concentrations
Procedure: Viability was determined after 96 hours by measuring cellular ATP content (CellTiter-Glo, Promega). Half-maximal inhibitory concentrations (GI50) were determined using the statistical data analysis software “R” with the package “ic50”.

[5] = test system: 83 lung cancer cell lines; test: Cell-line screening, viability by cellular ATP content (CellTiter-Glo); assay type: cell-based
FGFR1 = FGFR1 (Homo sapiens, UniProt P11362); conditions: FGFR1 one of only two of 105 kinases
Sequence of FGFR1 (P11362 22-822): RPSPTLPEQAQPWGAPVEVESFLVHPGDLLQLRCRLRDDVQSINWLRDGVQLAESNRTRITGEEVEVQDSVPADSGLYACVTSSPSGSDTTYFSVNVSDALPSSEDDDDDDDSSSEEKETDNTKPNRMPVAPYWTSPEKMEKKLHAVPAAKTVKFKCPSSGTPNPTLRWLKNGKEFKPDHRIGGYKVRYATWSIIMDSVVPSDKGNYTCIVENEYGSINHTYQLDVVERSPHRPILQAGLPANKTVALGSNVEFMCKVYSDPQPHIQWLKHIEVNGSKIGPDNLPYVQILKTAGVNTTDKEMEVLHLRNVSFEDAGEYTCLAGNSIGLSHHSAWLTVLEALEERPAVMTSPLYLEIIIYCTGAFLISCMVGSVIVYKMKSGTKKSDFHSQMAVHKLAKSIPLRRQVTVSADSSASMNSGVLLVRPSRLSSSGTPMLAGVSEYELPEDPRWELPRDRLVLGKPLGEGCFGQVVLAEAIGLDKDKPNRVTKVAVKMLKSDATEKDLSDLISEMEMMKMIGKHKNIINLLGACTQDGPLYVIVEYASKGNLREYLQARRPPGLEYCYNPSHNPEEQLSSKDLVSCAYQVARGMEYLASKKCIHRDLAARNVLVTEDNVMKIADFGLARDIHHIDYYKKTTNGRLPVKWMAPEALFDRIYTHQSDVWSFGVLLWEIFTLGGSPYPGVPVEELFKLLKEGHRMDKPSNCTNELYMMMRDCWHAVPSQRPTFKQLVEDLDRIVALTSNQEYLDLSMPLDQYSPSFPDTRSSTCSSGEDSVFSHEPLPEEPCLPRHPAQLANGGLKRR

[6] = test system: EGFR-mutant cell line HCC827; test: Immunoblotting of phosphorylated FGFR and downstream molecules; assay type: cell-based
Excerpt: (§1) The following antibodies were used for immunoblotting: β-actin (MPBioscience), phospho-FGFR(Y653, Y654), pFRS2 (Tyr196), p-AKT (S473), pS6, S6, AKT, p-ERK, ERK (Cell Signaling Technology), total-FGFR1 (Santa Cruz), anti-rabbit-HRP, anti-mouse-HRP-antibody (Millipore).

[7] = test system: FGFR1-amplified cells (H1581, H520); test: as above; assay type: cell-based
Excerpt: as §1

[8] = test system: H1975 (FGFR1 wild type) cells; test: Xenograft mouse model, EGFR-mutant H1975 cells; assay type: in vivo, mice; conditions: xenografted EGFR-mutant H1975 cells
Procedure: (§2) All animal procedures were approved by the local animal protection committee and the local authorities. 5*10^6 tumor cells were injected subcutaneously into male nude mice.

H1581 cells = test: Xenograft mouse model, FGFR1-amplified H1581 cells; assay type: in vivo; conditions: 100 mg/kg twice a day, oral gavage, mice engrafted with FGFR1-amplified cells
Procedure: as §2

[9] = test system: FGFR1-amplified lung cancer cells expressing FGFR1^V561M; conditions: 0.5 μM and 1.0 μM
Excerpt: The V561M mutation was introduced into FGFR1 cloned in pBABE-Puro by site-directed mutagenesis. Replication-incompetent retroviruses were produced by contransfection with the pCL-ampho plasmid in HEK 293T cells. Hairpin shRNA targeting the different genes were ordered from Sigma. Replication-incompetent lentiviruses were produced from pLKO.1-Puro based vectors by contransfection with Δ8.9 and pMGD2 in 293T cells as described previously (Sos et al., Cancer Res 70, 868-874 (2010)). After transduction cells were selected with puromycin (1.5 μg/ml) and five days after selection cells were counted using trypan blue.

[10] = test system: FGFR1 amplified cell line H520; test: FGFR1 phosphorylation by immunoprecipitation; assay type: cell-based; conditions: H520, 1 μM
Procedure: For the detection of FGFR1 phosphorylation, whole-cell lysates (0.5-1 mg) in NP40 lysis buffer was incubated with agarose A/G Plus preconjugated with the FGFR1 antibody. Immunoprecipitates were washed in NP40 lysis buffer, boiled in sample buffer, and subjected to SDS-PAGE followed by immunoblotting using an anti phospho-tyrosine residues antibody to detect specific phosphorylation of FGFR1.

[11] = Pharmacokinetics of PD173074 in mice; assay type: in vivo
Procedure: Pharmacokinetic data were created by taking blood-samples from male nude mice by puncture of the tail-vein under isoflurane anesthesia. […] All blood samples were centrifuged; the blood plasma-containing supernatant was extracted and stored at -20° C. Analytic samples were prepared from the blood plasma by acetonitrile extraction with an internal standard of 1 μM griseofulvin. […] Pharmacokinetic data was evaluated with WinNonlin Software (Pharsight).

CCN(CC)CCCCNc1ncc2cc(-c3cc(OC)cc(OC)c3)c(NC(=O)NC(C)(C)C)nc2n1 [PD173074]
levels of phospho-AKT in explanted tumors [1]: not of phospho-AKT | levels of phospho-ERK in explanted tumors [1]: reduction in the levels of phospho-ERK | induction of apoptosis [2]: induced apoptosis | colony formation in soft agar [3]: decreased colony formation | activity on viability of H1703 cells [4]: not active | sensitivity of FGFR1-amplified cell line H520 ([5]; H520, derived from a squamous-cell lung cancer patient): sensitive | GI50 ([5]; four of the 83 lung cancer cell lines tested, viability after 96 hours, read-out: half-maximal growth inhibitory concentration (GI50)): < 1000 nM | growth inhibition ([5]; specifically in lung cancer cells carrying amplified FGFR1, p=0.0002): inhibited growth | kinase inhibition (FGFR1): strongly inhibited | levels of phosphorylated FGFR1 and FRS2 [6]: not in the EGFR-mutant cell line HCC827 | levels of phosphorylated FGFR1 [7]: reduced the levels of phosphorylated FGFR1 | phosphorylation of ERK [7]: inhibition of phosphorylation of ERK | tumor regression [8]: did not show signs of regression | tumor size (H1581 cells): tumor shrinkage | cytotoxicity and dephosphorylation of FGFR on expression of FGFR1^V561M [9]: abolished | phosphorylation of FGFR1 (phosphotyrosine after immunoprecipitation) [10]: leads to dephosphorylation of FGFR1 | exposure ([11]; 50 mg/kg twice a day compared to 100 mg/kg twice a day): only a minimal exposure | half-life in vivo ([11]; mice): short half-life
